Measurements taken from US10399940B2, “Substituted pyrrolidines and methods of use” (AbbVie S.à.r.l., priority 2016, dated 2019).
Where two headings read alike, the source gives them in different places.

Molecular target: T1, F508delCFTR (Homo sapiens, UniProt P13569, DEL508-508)
T1 construct: expressed in transfected cells; host or cells: CFBE41o- (human lung derived epithelial cell line), doxycycline-inducible expression
Experiment: Cell Surface Expression-Horse Radish Peroxidase (CSE-HRP) assay
Assay type: cell-based
Settings: CFBE41o-F508delCFTR-HRP cells; for Maximum % activity (with co-corrector): with co-corrector (2 μM); for Maximum % activity (with co-corrector) / Maximum % activity (without co-corrector): normalized to on-plate positive control, highest concentration 20 μM
How it was run: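 Surface F508delCFTR-HRP was read by luminol luminescence after 18–24 h compound exposure at 33 °C, without or with 2 μM co-corrector. Doses were eight 3-fold steps from 20 μM, in doxycycline-induced (0.5 μg/mL, 72 h) CFBE41o- cells. % activity was scaled to the on-plate 2 μM positive control minus DMSO; EC50 came from a variable-slope sigmoid fit.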

[1] = test compound without co-corrector, 18-24 hours at 33° C., read-out: EC50 (without co-corrector)
[2] = with co-corrector (2 μM of 3-[(2R,4R)-4-({[1-(2,2-difluoro-1,3-benzodioxol-5-yl)cyclopropyl]carbonyl}amino)-7-methoxy-3,4-dihydro-2H-chromen-2-yl]benzoic acid), read-out: EC50 (with co-corrector)

T1 sequence (P13569 with tags, fused parts or gaps DEL508-508): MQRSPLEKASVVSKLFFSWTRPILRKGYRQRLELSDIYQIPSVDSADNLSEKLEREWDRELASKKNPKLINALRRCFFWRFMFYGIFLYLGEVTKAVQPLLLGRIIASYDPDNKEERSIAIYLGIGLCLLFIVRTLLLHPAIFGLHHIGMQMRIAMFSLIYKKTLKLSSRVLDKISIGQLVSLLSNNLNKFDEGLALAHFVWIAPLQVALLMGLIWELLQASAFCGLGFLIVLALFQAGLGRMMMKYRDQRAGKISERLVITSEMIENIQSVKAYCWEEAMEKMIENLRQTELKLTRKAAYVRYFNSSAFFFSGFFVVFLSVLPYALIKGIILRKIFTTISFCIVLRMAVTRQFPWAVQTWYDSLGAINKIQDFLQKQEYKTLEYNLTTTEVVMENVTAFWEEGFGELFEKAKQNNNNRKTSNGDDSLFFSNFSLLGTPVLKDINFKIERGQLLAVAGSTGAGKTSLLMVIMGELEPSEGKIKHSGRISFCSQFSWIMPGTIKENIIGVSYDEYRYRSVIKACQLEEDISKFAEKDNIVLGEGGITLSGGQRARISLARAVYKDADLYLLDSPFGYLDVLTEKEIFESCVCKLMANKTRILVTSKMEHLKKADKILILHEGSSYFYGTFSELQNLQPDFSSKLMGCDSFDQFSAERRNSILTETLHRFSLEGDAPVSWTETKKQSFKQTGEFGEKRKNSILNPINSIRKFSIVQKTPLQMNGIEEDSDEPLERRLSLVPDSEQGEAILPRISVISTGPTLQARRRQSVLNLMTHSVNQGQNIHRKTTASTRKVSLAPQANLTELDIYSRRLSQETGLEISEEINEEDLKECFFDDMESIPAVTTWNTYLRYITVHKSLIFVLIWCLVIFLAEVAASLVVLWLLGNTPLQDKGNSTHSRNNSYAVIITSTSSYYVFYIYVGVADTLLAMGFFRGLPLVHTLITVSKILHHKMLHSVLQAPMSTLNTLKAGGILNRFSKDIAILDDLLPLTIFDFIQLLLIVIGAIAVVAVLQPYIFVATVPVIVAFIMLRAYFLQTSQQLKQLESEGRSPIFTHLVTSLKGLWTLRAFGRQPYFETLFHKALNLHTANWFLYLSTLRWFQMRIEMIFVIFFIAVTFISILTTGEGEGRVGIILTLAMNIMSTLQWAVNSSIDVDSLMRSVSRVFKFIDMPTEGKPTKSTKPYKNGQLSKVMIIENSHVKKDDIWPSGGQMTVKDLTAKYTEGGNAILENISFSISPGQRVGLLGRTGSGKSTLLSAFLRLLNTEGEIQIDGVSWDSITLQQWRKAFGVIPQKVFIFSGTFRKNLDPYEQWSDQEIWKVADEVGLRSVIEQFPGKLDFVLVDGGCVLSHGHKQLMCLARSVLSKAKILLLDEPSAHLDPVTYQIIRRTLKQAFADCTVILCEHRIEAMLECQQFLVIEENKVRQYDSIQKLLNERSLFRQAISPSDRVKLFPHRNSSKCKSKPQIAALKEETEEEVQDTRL

Row | SMILES | EC50 [1] [nM] | EC50 [2] [nM] | Maximum % activity (with co-corrector) | Maximum % activity (without co-corrector)
1 | COc1ncc(C2CCC2)cc1CO[C@H]1[C@H](C(C)(C)C)[C@@H](C(=O)O)N(C(=O)[C@@H]2CCCCO2)[C@H]1c1cccc(Cl)c1C [Example 231, (2S,3R,4S,5S)-3-tert-butyl-5-(3-chloro-2-methylphenyl)-4-[(5-cyclobutyl-2-methoxypyridin-3-yl)methoxy]-1-[(2S)-oxane-2-carbonyl]pyrrolidine-2-carboxylic acid] | 1000 to 10000 | < 1000 | +++ (≥350) | +++ (≥200)
2 | COc1ncc(C(F)(F)F)cc1CO[C@H]1[C@H](C(C)(C)C)[C@@H](C(=O)O)N(C(=O)[C@@H]2CCCCO2)[C@H]1c1cccc(Cl)c1C [Example 232, (2S,3R,4S,5S)-3-tert-butyl-5-(3-chloro-2-methylphenyl)-4-{[2-methoxy-5-(trifluoromethyl)pyridin-3-yl]methoxy}-1-[(2S)-oxane-2-carbonyl]pyrrolidine-2-carboxylic acid] | 1000 to 10000 | < 1000 | +++ (≥350) | +++ (≥200)
3 | COc1ncc(C(C)(C)C)cc1CO[C@H]1[C@H](C(C)(C)C)[C@@H](C(=O)O)N(C(=O)[C@@H]2CCCCO2)[C@H]1c1ccccc1C [Example 233, (2S,3R,4S,5S)-3-tert-butyl-4-[(5-tert-butyl-2-methoxypyridin-3-yl)methoxy]-5-(2-methylphenyl)-1-[(2S)-oxane-2-carbonyl]pyrrolidine-2-carboxylic acid] | 1000 to 10000 | < 1000 | +++ (≥350) | +++ (≥200)
4 | [2H]C([2H])([2H])Oc1ccc(C(F)(F)F)cc1C([2H])([2H])O[C@H]1[C@H](C(C)(C)C)[C@@H](C(=O)O)N(C(=O)[C@@H]2CCCCO2)[C@H]1c1ccccc1C [Example 234, (2S,3R,4S,5S)-3-tert-butyl-4-{[{2-[(^2H3)methyloxy]-5-(trifluoromethyl)phenyl}(^2H2)methyl]oxy}-5-(2-methylphenyl)-1-[(2S)-oxane-2-carbonyl]pyrrolidine-2-carboxylic acid] | < 1000 | < 1000 | +++ (≥350) | +++ (≥200)
5 | [2H]C([2H])(O[C@H]1[C@H](C(C)(C)C)[C@@H](C(=O)O)N(C(=O)[C@@H]2CCCCO2)[C@H]1c1ccccc1C)c1cc(C(C)(C)C)ccc1OC [Example 235, (2S,3R,4S,5S)-3-tert-butyl-4-{[(5-tert-butyl-2-methoxyphenyl)(^2H2)methyl]oxy}-5-(2-methylphenyl)-1-[(2S)-oxane-2-carbonyl]pyrrolidine-2-carboxylic acid] | < 1000 | < 1000 | +++ (≥350) | +++ (≥200)
6 | Cc1cc(C)c2cc(CO[C@H]3[C@H](C(C)(C)C)[C@@H](C(=O)O)N(C(=O)[C@@H]4CCCCO4)[C@H]3c3ccccc3C)c(Cl)nc2c1 [Example 236, (2S,3R,4S,5S)-3-tert-butyl-4-[(2-chloro-5,7-dimethylquinolin-3-yl)methoxy]-5-(2-methylphenyl)-1-[(2S)-oxane-2-carbonyl]pyrrolidine-2-carboxylic acid] | 1000 to 10000 | 1000 to 10000 | +++ (≥350) | ++ (≥100 and <200)
7 | COc1nc2c(C)ccc(C)c2cc1CO[C@H]1[C@H](C(C)(C)C)[C@@H](C(=O)O)N(C(=O)[C@@H]2CCCCO2)[C@H]1c1ccccc1C [Example 237, (2S,3R,4S,5S)-3-tert-butyl-4-[(2-methoxy-5,8-dimethylquinolin-3-yl)methoxy]-5-(2-methylphenyl)-1-[(2S)-oxane-2-carbonyl]pyrrolidine-2-carboxylic acid] | 1000 to 10000 | < 1000 | +++ (≥350) | +++ (≥200)
8 | COc1nc2cc(C)cc(C)c2cc1CO[C@H]1[C@H](C(C)(C)C)[C@@H](C(=O)O)N(C(=O)[C@@H]2CCCCO2)[C@H]1c1ccccc1C [Example 238, (2S,3R,4S,5S)-3-tert-butyl-4-[(2-methoxy-5,7-dimethylquinolin-3-yl)methoxy]-5-(2-methylphenyl)-1-[(2S)-oxane-2-carbonyl]pyrrolidine-2-carboxylic acid] | 1000 to 10000 | < 1000 | +++ (≥350) | +++ (≥200)
9 | COc1ccccc1[C@H]1[C@@H](OCc2cc(C3CCC3)cnc2OC)[C@H](C(C)(C)C)[C@@H](C(=O)O)N1C(=O)[C@@H]1CCCCO1 [Example 239, (2S,3R,4S,5S)-3-tert-butyl-4-[(5-cyclobutyl-2-methoxypyridin-3-yl)methoxy]-5-(2-methoxyphenyl)-1-[(2S)-oxane-2-carbonyl]pyrrolidine-2-carboxylic acid] | 1000 to 10000 | < 1000 | +++ (≥350) | ++ (≥100 and <200)
10 | COc1ccccc1[C@H]1[C@@H](OCc2cc(C(F)(F)F)cnc2OC)[C@H](C(C)(C)C)[C@@H](C(=O)O)N1C(=O)[C@@H]1CCCCO1 [Example 240, (2S,3R,4S,5S)-3-tert-butyl-5-(2-methoxyphenyl)-4-{[2-methoxy-5-(trifluoromethyl)pyridin-3-yl]methoxy}-1-[(2S)-oxane-2-carbonyl]pyrrolidine-2-carboxylic acid] | 1000 to 10000 | < 1000 | +++ (≥350) | ++ (≥100 and <200)
11 | COc1ccccc1[C@H]1[C@@H](OCc2cc(C(C)(C)C)cnc2OC)[C@H](C(C)(C)C)[C@@H](C(=O)O)N1C(=O)[C@@H]1CCCCO1 [Example 241, (2S,3R,4S,5S)-3-tert-butyl-4-[(5-tert-butyl-2-methoxypyridin-3-yl)methoxy]-5-(2-methoxyphenyl)-1-[(2S)-oxane-2-carbonyl]pyrrolidine-2-carboxylic acid] | 1000 to 10000 | < 1000 | +++ (≥350) | +++ (≥200)
12 | COc1nc2c(C)cc(C)cc2cc1CO[C@H]1[C@H](C(C)(C)C)[C@@H](C(=O)O)N(C(=O)[C@@H]2CCCCO2)[C@H]1c1ccccc1C [Example 242, (2S,3R,4S,5S)-3-tert-butyl-4-[(2-methoxy-6,8-dimethylquinolin-3-yl)methoxy]-5-(2-methylphenyl)-1-[(2S)-oxane-2-carbonyl]pyrrolidine-2-carboxylic acid] | 1000 to 10000 | 1000 to 10000 | +++ (≥350) | ++ (≥100 and <200)
13 | COc1ncc(C2(C)CC2)cc1CO[C@H]1[C@H](C(C)(C)C)[C@@H](C(=O)O)N(C(=O)[C@@H]2CCCCO2)[C@H]1c1ccccc1C [Example 243, (2S,3R,4S,5S)-3-tert-butyl-4-{[2-methoxy-5-(1-methylcyclopropyl)pyridin-3-yl]methoxy}-5-(2-methylphenyl)-1-[(2S)-oxane-2-carbonyl]pyrrolidine-2-carboxylic acid] | 1000 to 10000 | < 1000 | +++ (≥350) | +++ (≥200)
14 | COc1nc2c(C)cccc2cc1CO[C@H]1[C@H](C(C)(C)C)[C@@H](C(=O)O)N(C(=O)[C@@H]2CCCCO2)[C@H]1c1ccccc1C [Example 244, (2S,3R,4S,5S)-3-tert-butyl-4-[(2-methoxy-8-methylquinolin-3-yl)methoxy]-5-(2-methylphenyl)-1-[(2S)-oxane-2-carbonyl]pyrrolidine-2-carboxylic acid] | 1000 to 10000 | 1000 to 10000 | +++ (≥350) | ++ (≥100 and <200)
15 | COc1ccc(C(C)(C)C)cc1CO[C@H]1[C@H](C(C)(C)C)[C@@H](C(=O)O)N(C(=O)OC(C)C)[C@H]1c1cccnc1OC(C)C [Example 245, (2S,3R,4S,5S)-3-tert-butyl-4-[(5-tert-butyl-2-methoxyphenyl)methoxy]-1-{[(propan-2-yl)oxy]carbonyl}-5-{2-[(propan-2-yl)oxy]pyridin-3-yl}pyrrolidine-2-carboxylic acid] | 1000 to 10000 | 1000 to 10000 | +++ (≥350) | +++ (≥200)
16 | COc1ccc(C2(C)CCC2)cc1CO[C@H]1[C@H](C(C)(C)C)[C@@H](C(=O)O)N(C(=O)OC(C)C)[C@H]1c1cccnc1OC(C)C [Example 246, (2S,3R,4S,5S)-3-tert-butyl-4-{[2-methoxy-5-(1-methylcyclobutyl)phenyl]methoxy}-1-{[(propan-2-yl)oxy]carbonyl}-5-{2-[(propan-2-yl)oxy]pyridin-3-yl}pyrrolidine-2-carboxylic acid] | 1000 to 10000 | < 1000 | +++ (≥350) | +++ (≥200)
17 | COc1ccc(C(C)(C)C)cc1CO[C@H]1[C@H](C(C)(C)C)[C@@H](C(=O)O)N(C(=O)[C@@H]2CCCO2)[C@H]1c1ccccc1C [Example 247, (2S,3R,4S,5S)-3-tert-butyl-4-[(5-tert-butyl-2-methoxyphenyl)methoxy]-5-(2-methylphenyl)-1-[(2S)-oxolane-2-carbonyl]pyrrolidine-2-carboxylic acid] | 1000 to 10000 | 1000 to 10000 | +++ (≥350) | +++ (≥200)
